This passage reports IC50 results from patent publication US20190142810A1, “MITOCHONDRIAL INHIBITORS FOR THE TREATMENT OF PROLIFERATION DISORDERS” (Basilea Pharmaceutica International AG, priority 2016, published 2019).

The test system of one experiment is HeLa galactose cells. In words: Cell growth and proliferation assay of HeLa galactose cells (crystal violet). In kind it is cell-based. The conditions noted are these: 72 hours incubation, crystal violet staining, absorbance at 590 nm. On the procedure:
The cervical tumor cell line HeLa (ATCC, CCL-2) was cultivated in DMEM medium (Invitrogen cat. no. 11971, 4.5 g/L high glucose) containing 10% fetal calf serum (Sigma cat. no. F9665) and 1% Penicillin/Streptomycin (Sigma cat. no. P0781) at 37° C. in 5% CO2. HeLa galactose cells (i.e. HeLa cells that grow in high concentrations of galactose) were generated from HeLa glucose cells (i.e. HeLa cells that grow in high concentrations of glucose) by gradually changing the amount of glucose in the media to zero glucose in the presence of galactose as a sugar source (50% galactose/50% glucose media for one week, then 75% galactose/25% glucose media for one week, to 100% galactose media in the third week). Galactose media (Invitrogen cat. no. 11966) was supplemented with 10 mM galactose (Sigma cat. no. G5388).
Cell Growth and Proliferation Assay of HeLa Galactose and Glucose Cells
HeLa galactose cells and HeLa glucose cells were seeded in 96 well plates (TPP, cat. no 92696) at 2000 and 1500 cells/well, respectively, in 100 μL of complete medium. After overnight incubation the cells were incubated for 72 hours in complete medium containing 0.001% DMSO or compounds (final concentration of DMSO 0.001%). After the medium was removed, cells were fixed and stained by adding 50 μL crystal violet staining (0.2% crystal violet (Sigma-Aldrich cat. no. C0775) in 50% methanol) per well. The plates were incubated for 1 hour at room temperature. Subsequently the stain was decanted and plates were washed 4 times with de-mineralized water. Plates were air-dried for 2 hours. The stain was dissolved by adding 100 μL buffer (0.1 M Tris pH 7.5, 0.2% SDS, 20% ethanol) per well and shaking the plates. Absorbance at 590 nm was measured using a SpectraMax® 250 plate reader (Molecular Devices). Antiproliferative/growth inhibition IC50s were calculated from concentration-response curves using GraphPad Prism software.
For `COCC1CN(C(=O)Nc2nc(C)ns2)CC/C1=C/c1ccc(Cl)cc1F` (stereo not drawn) [Example 133], the half-maximal inhibitory concentration (IC50) is 100 nM.
Still for that read-out and setting: in the case of `COCC1CN(C(=O)Nc2nc(C)ns2)CC/C1=C/c1ccc(Cl)cc1F` (stereo not drawn) [Example 130, (4Z)-4-[(4-chloro-2-fluoro-phenyl)methylene]-3-(methoxymethyl)-N-(3-methyl-1,2,4-thiadiazol-5-yl)piperidine-1-carboxamide] it was 355 nM.

The experiment is the same for the next values; noted with them: Homo sapiens, HeLa, 72 h, 72 hours incubation, crystal violet staining, absorbance at 590 nm.
`COc1ccc(CC2CCN(C(=O)Nc3nc(C)ns3)CC2)c(N)c1` [Example 23] registered an IC50 of 356 nM.
Same read-out and setting: as for `Cc1nsc(NC(=O)N2CCC(=Cc3ccc(OCCCN)cc3F)CC2)n1` [Example 111], the figure is 514 nM.
With `Cc1nsc(NC(=O)N2CCC(Cc3ccc(N4CCCC4)cc3F)CC2)n1` [Example 44], the IC50 amounted to 429 nM.
Same read-out and setting: as for `Cc1nsc(NC(=O)N2CCCC(=Cc3ccc(N(C)C)cc3F)CC2)n1` [Example 125], the figure is 63 nM; as for `O=C(Nc1ccncn1)N1CCC(Cc2ccc(Cl)cc2Cl)CC1` [Example 22, 4-[(2,4-dichlorophenyl)methyl]-N-pyrimidin-4-yl-piperidine-1-carboxamide], 837 nM.
Still for that read-out and setting: as for `CCN(CC)c1cc(F)c(C=C2CCN(C(=O)Nc3nc(C)ns3)CC2)c(F)c1` [Example 159], the figure is 215 nM; as for `Cc1nsc(NC(=O)N2CCC(=Cc3ccc(N4CCCC4)cc3)CC2)n1` [Example 43], 439 nM.
On to `Cc1nsc(NC(=O)N2CCC(C(C)c3ccc(Cl)cc3F)CC2)n1` (stereo not drawn) [Example 105], for which inhibition was half-maximal at 482 nM (IC50).
On the same count and under the same terms, as for `CC(=O)NCCN(C)c1ccc(C=C2CCN(C(=O)Nc3nc(C)ns3)CC2)c(F)c1` [Example 123, 4-[[4-[2-acetamidoethyl(methyl)amino]-2-fluoro-phenyl]methylene]-N-(3-methyl-1,2,4-thiadiazol-5-yl)piperidine-1-carboxamide], the figure is 245 nM.
Same read-out and setting: as for `Cc1nsc(NC(=O)N2CCC(Oc3ccc(F)cc3)CC2)n1` [Example 73], the figure is 465 nM.
Compound `Cc1cc(NC(=O)N2CCC(C(=O)c3ccc(N(C)C)cc3F)CC2)ccn1` [Example 156] came in with an IC50 of 193 nM.
On the same count and under the same terms, as for `Cc1nsc(NC(=O)N2CC/C(=C/c3c(F)cc(Cl)cc3F)CC2(C)C)n1` [Example 169], the figure is 432 nM.
On the same count and under the same terms, as for `Cc1nsc(NC(=O)N2CCC(Cc3ccc(C(N)=O)cc3F)CC2)n1` [Example 37, 4-[(4-carbamoyl-2-fluoro-phenyl)methyl]-N-(3-methyl-1,2,4-thiadiazol-5-yl)piperidine-1-carboxamide], the figure is 478 nM; as for `Cc1cc(NC(=O)N2CCC(=Cc3ccc(N(C)C)cc3F)CC2)ccn1` [Example 132], 76 nM.
On the same count and under the same terms, in the case of `Cc1nsc(NC(=O)N2CCC(=Cc3ccc(N(C)CCCCN)cc3F)CC2)n1` [Example 163] it was 293 nM; in that of `Cc1nsc(NC(=O)N2CCC(=Cc3ccc(N(C)CCCN)cc3F)CC2)n1` [Example 124], 70 nM; in that of `COC(=O)c1ccc(CC2CCN(C(=O)Nc3nc(C)ns3)CC2)c(F)c1` [Example 36], 540 nM.
For the compound `Nc1cc(NC(=O)N2CCC(=Cc3ccc(Cl)cc3F)CC2)ccn1` [Example 131], the IC50 was found to be 264 nM.
`COCCC1CN(C(=O)Nc2nc(C)ns2)CC/C1=C\c1ccc(Cl)cc1F` (stereo not drawn) [Example 135, (4E)-4-[(4-chloro-2-fluoro-phenyl)methylene]-3-(2-methoxyethyl)-N-(3-methyl-1,2,4-thiadiazol-5-yl)piperidine-1-carboxamide] registered a concentration for half-maximal inhibition (IC50) of 636 nM.
Same read-out and setting: as for `Cc1nsc(NC(=O)N2CCC(Cc3ccc(OCC(C)C)cc3F)CC2)n1` [Example 31], the figure is 795 nM; as for `Cc1nsc(NC(=O)N2CCC(=Cc3ccc(OCCCO)cc3F)CC2)n1` [Example 107, 4-[[2-fluoro-4-(3-hydroxypropoxy)phenyl]methylene]-N-(3-methyl-1,2,4-thiadiazol-5-yl)piperidine-1-carboxamide], 389 nM; as for `Cc1nsc(NC(=O)N2CCC(=Cc3c(F)cc(O)cc3F)CC2)n1` [Example 99, 4-[(2,6-difluoro-4-hydroxy-phenyl)methylene]-N-(3-methyl-1,2,4-thiadiazol-5-yl)piperidine-1-carboxamide], 307 nM.
`Cc1nsc(NC(=O)N2CCC(=Cc3ccc(Cl)cc3F)C(F)C2)n1` (stereo not drawn) [Example 106] displayed an IC50 of 467 nM.
Regarding `COCCC1CN(C(=O)Nc2nc(C)ns2)CC/C1=C/c1ccc(Cl)cc1F` (stereo not drawn) [Example 134, (4Z)-4-[(4-chloro-2-fluoro-phenyl)methylene]-3-(2-methoxyethyl)-N-(3-methyl-1,2,4-thiadiazol-5-yl)piperidine-1-carboxamide], the IC50 stood at 449 nM.
The same measure, in the same setting: as for `Cc1cc(NC(=O)N2CCC(Cc3ccc(Cl)cc3F)CC2)cnn1` [Example 165], the figure is 383 nM; as for `Cc1nsc(NC(=O)N2CCC(=Cc3ccc(C#CCO)cc3F)CC2)n1` [Example 170, 4-[[2-fluoro-4-(3-hydroxyprop-1-ynyl)phenyl]methylene]-N-(3-methyl-1,2,4-thiadiazol-5-yl)piperidine-1-carboxamide], 415 nM.
Still for that read-out and setting: as for `Cc1nsc(NC(=O)N2CCC(=Cc3ccc(N)cc3F)CC2)n1` [Example 119, 4-[(4-amino-2-fluoro-phenyl)methylene]-N-(3-methyl-1,2,4-thiadiazol-5-yl)piperidine-1-carboxamide], the figure is 159 nM.
Still for that read-out and setting: as for `Cc1nsc(NC(=O)N2CCC(=Cc3ccc(CNCCCN4CCOCC4)cc3F)CC2)n1` [Example 91], the figure is 492 nM; as for `Cc1nsc(NC(=O)N2CCC(Cc3ccc(CN4CCOCC4)cc3)CC2)n1` [Example 34, N-(3-methyl-1,2,4-thiadiazol-5-yl)-4-[[4-(morpholinomethyl)phenyl]methyl]piperidine-1-carboxamide], 572 nM.
Compound `Cc1nsc(NC(=O)N2CCC(=Cc3ccc(C=O)cc3F)CC2)n1` [Example 88, 4-[(2-fluoro-4-formyl-phenyl)methylene]-N-(3-methyl-1,2,4-thiadiazol-5-yl)piperidine-1-carboxamide] had an IC50 of 418 nM.
Compound `Cc1cc(NC(=O)N2CCC(=Cc3ccc(Cl)cc3F)CC2)ncn1` [Example 136] displayed an IC50 of 81 nM.
With `Cc1cc(NC(=O)N2CCC(=Cc3c(F)cc(C#N)cc3F)CC2)ccn1` [Example 175], inhibition was half-maximal at 58 nM (IC50).
On the same count and under the same terms, in the case of `Cc1nsc(NC(=O)N2CCC(=Cc3ccc(N(C)CCN)cc3F)CC2)n1` [Example 122, 4-[[4-[2-aminoethyl(methyl)amino]-2-fluoro-phenyl]methylene]-N-(3-methyl-1,2,4-thiadiazol-5-yl)piperidine-1-carboxamide] it was 182 nM; in that of `Cc1nsc(NC(=O)N2CCN(Cc3ccc(Cl)cc3F)CC(O)C2)n1` (stereo not drawn) [Example 162], 162 nM; in that of `CC(=C1CCN(C(=O)Nc2nc(C)ns2)CC1)c1ccc(Cl)cc1F` [Example 104], 642 nM.
The same measure, in the same setting: in the case of `Cc1nsc(NC(=O)N2CCC(=Cc3c(F)cc(NC4CCOC4)cc3F)CC2)n1` (stereo not drawn) [Example 150] it was 124 nM.
On the same count and under the same terms, as for `Cc1nsc(NC(=O)N2CCC(C(=O)c3ccc(N(C)C)cc3F)CC2)n1` [Example 155, 4-[4-(dimethylamino)-2-fluoro-benzoyl]-N-(3-methyl-1,2,4-thiadiazol-5-yl)piperidine-1-carboxamide], the figure is 149 nM; as for `N#CCc1cc(NC(=O)N2CCC(=Cc3ccc(Cl)cc3F)CC2)ccn1` [Example 178, 4-[(4-chloro-2-fluoro-phenyl)methylene]-N-[2-(cyanomethyl)-4-pyridyl]piperidine-1-carboxamide], 155 nM.
`Cc1nsc(NC(=O)N2CCC(C(=O)c3ccc(C(F)(F)F)cc3F)CC2)n1` [Example 142, 4-[2-fluoro-4-(trifluoromethyl)benzoyl]-N-(3-methyl-1,2,4-thiadiazol-5-yl)piperidine-1-carboxamide] registered an IC50 of 86 nM.
Still for that read-out and setting: in the case of `Cc1cc(NC(=O)N2CCC(C(=O)c3ccc(C#N)cc3F)CC2)ccn1` [Example 172] it was 126 nM.
On to `Cc1nsc(NC(=O)N2CCCC(Cc3ccc(N(C)C)cc3F)CC2)n1` (stereo not drawn) [Example 126], for which half-maximal inhibition (IC50) was put at 68 nM.
The same measure, in the same setting: as for `Cc1nsc(NC(=O)N2CCC(Cc3c(F)cc(Cl)cc3F)CC2(C)C)n1` (stereo not drawn) [Example 167], the figure is 500 nM; as for `Cc1nsc(NC(=O)N2CCC(C(=O)c3ccc(C#N)cc3F)CC2)n1` [Example 171], 67 nM; as for `Cc1nsc(NC(=O)N2CC/C(=C\c3c(F)cc(Cl)cc3F)CC2(C)C)n1` [Example 168], 280 nM.
Compound `O=C(Nc1ccnc(CO)c1)N1CCC(=Cc2ccc(Cl)cc2F)CC1` [Example 177, 4-[(4-chloro-2-fluoro-phenyl)methylene]-N-[2-(hydroxymethyl)-4-pyridyl]piperidine-1-carboxamide] yielded a concentration for half-maximal inhibition (IC50) of 96 nM. Against the preceding compound, the IC50 is about 2.9-fold lower.
`Cc1nsc(NC(=O)N2CCC(Cc3ccc(Cl)cn3)CC2)n1` [Example 61] showed an IC50 of 516 nM.

The term IC50 denotes the concentration that gives 50% inhibition. Higher therefore signals weaker potency.
